The target in one test is T1, human MR (Homo sapiens, UniProt P08235).
T1 construct: The full length human MR gene is cloned from a human kidney or human brain cDNA library; His tag from the pAcHLT vector (own knowledge); made in house; host or cells: Sf9 insect cells (baculovirus, pAcHLT transfer vector)
T1 sequence (P08235 1-984): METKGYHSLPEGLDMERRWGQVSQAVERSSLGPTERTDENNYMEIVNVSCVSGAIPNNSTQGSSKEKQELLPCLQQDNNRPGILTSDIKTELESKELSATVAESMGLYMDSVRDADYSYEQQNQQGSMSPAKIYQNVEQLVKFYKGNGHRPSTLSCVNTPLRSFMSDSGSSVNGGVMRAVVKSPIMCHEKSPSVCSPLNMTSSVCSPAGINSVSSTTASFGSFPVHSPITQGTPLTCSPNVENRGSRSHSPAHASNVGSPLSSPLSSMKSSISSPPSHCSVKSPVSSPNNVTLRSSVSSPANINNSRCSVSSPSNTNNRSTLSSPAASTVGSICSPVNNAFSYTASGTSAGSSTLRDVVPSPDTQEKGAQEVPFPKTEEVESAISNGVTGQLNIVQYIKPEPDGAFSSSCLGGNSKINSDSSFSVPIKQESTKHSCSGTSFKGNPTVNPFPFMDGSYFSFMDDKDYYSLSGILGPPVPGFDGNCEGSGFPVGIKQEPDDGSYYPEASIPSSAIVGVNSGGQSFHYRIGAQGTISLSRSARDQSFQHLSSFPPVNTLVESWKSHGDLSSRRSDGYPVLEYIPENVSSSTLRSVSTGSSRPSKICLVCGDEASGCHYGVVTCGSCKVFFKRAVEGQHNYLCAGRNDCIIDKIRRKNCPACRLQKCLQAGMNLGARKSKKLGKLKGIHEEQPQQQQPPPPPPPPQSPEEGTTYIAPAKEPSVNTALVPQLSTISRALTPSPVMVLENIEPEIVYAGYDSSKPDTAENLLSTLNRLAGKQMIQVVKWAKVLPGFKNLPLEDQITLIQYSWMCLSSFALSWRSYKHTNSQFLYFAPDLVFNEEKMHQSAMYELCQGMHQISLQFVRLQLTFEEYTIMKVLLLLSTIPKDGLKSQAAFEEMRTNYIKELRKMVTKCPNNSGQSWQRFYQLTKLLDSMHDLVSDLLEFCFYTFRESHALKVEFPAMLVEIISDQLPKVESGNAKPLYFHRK
The test is described as follows: Mineralocorticoid Receptor Binding Assay ([3H]-aldosterone). Conditions: [3H]-aldosterone binding, human MR expressed in Sf9 cells; read-out: MR Ki. In short, it runs like this: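 Lysate supernatant of Sf9 cells expressing full-length human MR (20-25 μg protein) was incubated with 0.5 nM [3H]-aldosterone and test compound in molybdate/Tris/phosphate/glycerol buffer, pH 7.5, ~16 h at 4 °C. Bound ligand was filtered and counted by scintillation; IC50 is the concentration halving [3H]-aldosterone binding.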

For the next test, the target named is T2, glucocorticoid receptor (Homo sapiens, UniProt P04150).
T2 construct: containing 50-200 ug of A549 cell extract and 1.86 nM [^3H]-dexamethasone; host or cells: A549 human lung epithelial cells (sonicated cell extract)
T2 sequence (P04150 1-777): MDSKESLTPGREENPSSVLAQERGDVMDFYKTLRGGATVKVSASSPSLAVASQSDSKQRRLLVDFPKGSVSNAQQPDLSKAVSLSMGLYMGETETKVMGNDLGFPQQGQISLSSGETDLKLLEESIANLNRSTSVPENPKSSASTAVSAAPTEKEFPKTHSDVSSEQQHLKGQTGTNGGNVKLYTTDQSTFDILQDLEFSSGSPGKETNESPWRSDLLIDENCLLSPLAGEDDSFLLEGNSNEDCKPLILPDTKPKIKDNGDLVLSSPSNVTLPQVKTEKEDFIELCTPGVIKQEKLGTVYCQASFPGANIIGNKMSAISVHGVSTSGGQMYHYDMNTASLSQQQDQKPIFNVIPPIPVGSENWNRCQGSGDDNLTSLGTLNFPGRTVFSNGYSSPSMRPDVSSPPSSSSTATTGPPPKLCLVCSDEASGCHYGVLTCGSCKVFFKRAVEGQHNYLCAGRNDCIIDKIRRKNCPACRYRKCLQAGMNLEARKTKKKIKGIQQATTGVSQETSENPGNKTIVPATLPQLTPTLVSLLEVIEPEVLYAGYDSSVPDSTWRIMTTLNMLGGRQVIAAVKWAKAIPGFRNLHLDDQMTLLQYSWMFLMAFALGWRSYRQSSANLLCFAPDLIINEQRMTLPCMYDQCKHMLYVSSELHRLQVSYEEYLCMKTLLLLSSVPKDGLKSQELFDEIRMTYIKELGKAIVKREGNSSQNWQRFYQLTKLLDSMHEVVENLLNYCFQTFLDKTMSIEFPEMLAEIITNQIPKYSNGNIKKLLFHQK
The experiment in a line: Glucocorticoid Receptor Binding Assay ([3H]-dexamethasone, A549 cell extract). Conditions: [3H]-dexamethasone binding, read-out: GR Ki. In short, it runs like this: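 A549 cell extract (50–200 ug) incubated with 1.86 nM [3H]-dexamethasone and test compound for 16 h at 4 °C in Tris-HCl pH 7.2 buffer with glycerol and molybdate. Unbound radioligand removed by dextran-coated charcoal, then supernatant bound counts measured by scintillation.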

Turning to `COc1ccc2c(c1)CCc1ccccc1C2=Cc1cccc(O)c1` (mixture of isomers) [Example 167, 3-(2-Methoxy-10,11-dihydro-dibenzo[a,d]cyclohepten-5-ylidenemethyl)-phenol], the inhibition constant (Ki) on human MR and on glucocorticoid receptor was less than 500 nM in each case.
In the case of `CCC/C(=C1/c2ccccc2COc2ccccc21)c1cccc(NS(C)(=O)=O)c1` [Example 802], the inhibition constant (Ki) on human MR and at glucocorticoid receptor was less than 500 nM each time.
In the case of `O=c1[nH]c2cc(/C=C3\c4ccccc4CCc4cc(F)ccc43)ccc2o1` [Example 451], the values for the Ki on human MR and at glucocorticoid receptor were less than 500 nM and less than 10000 nM, respectively.
The corresponding values for `CCCCS(=O)(=O)Nc1cccc(C=C2c3ccccc3CCc3ccccc32)c1` [Example 105, Butane-1-sulfonic acid [3-(10,11-dihydro-dibenzo[a,d]cyclohepten-5-ylidenemethyl)-phenyl]-amide] are less than 500 nM and less than 500 nM.
The corresponding values for `CS(=O)(=O)Nc1cccc(/C=C2/c3cccnc3CCc3c(Cl)cccc32)c1` [Example 573] are less than 500 nM and less than 500 nM.
The corresponding values for `O=c1[nH]c2cc(/C=C3/c4ccccc4COc4cc(F)ccc43)ccc2o1` [Example 632] are less than 500 nM and less than 500 nM.
In the case of `CSc1cccc2c1CCc1ccccc1C2=Cc1cccc(NS(C)(=O)=O)c1` [Example 319], the Ki at human MR and at glucocorticoid receptor was less than 500 nM throughout.
For the compound `Nc1cccc(C=C2c3ccc(F)cc3CCc3cc(F)ccc32)c1` [Example 384], the Ki on human MR and at glucocorticoid receptor was less than 500 nM in each case.
As for `Oc1cccc(/C=C2/c3ccccc3CCc3c(Br)cccc32)c1` [Example 371], the Ki on human MR and on glucocorticoid receptor was less than 500 nM throughout.
Turning to `CS(=O)(=O)Nc1cccc(/C=C2/c3ccc(F)cc3COc3ccccc32)c1` [Example 724], the inhibitory constant (Ki) at human MR and at glucocorticoid receptor was less than 500 nM throughout.
As for `CN(c1cccc(/C=C2\c3ccccc3COc3cc(Cl)ccc32)c1)S(C)(=O)=O` [Example 667], the inhibitory constant (Ki) at human MR was less than 1000 nM; on glucocorticoid receptor, less than 10000 nM.
The corresponding values for `CS(=O)(=O)Nc1cccc(C=C2c3cccc(F)c3CCc3c(F)cccc32)c1` [Example 201, N-[3-(1,9-Difluoro-10,11-dihydro-dibenzo[a,d]cyclohepten-5-ylidenemethyl)-phenyl]-methanesulfonamide] are less than 500 nM and less than 500 nM.
As for `Cc1cccc2c1CCc1ccccc1C2=Cc1cccc(NS(C)(=O)=O)c1` [Example 303], the inhibition constant Ki at human MR and at glucocorticoid receptor was less than 500 nM in each case.
For `CC/C(=C1\c2ccccc2CCc2cc(C)ccc21)c1cccc(NS(C)(=O)=O)c1` [Example 779], the inhibitory constant (Ki) at human MR and on glucocorticoid receptor was less than 500 nM each time.
Turning to `Nc1cccc(C(=C2c3ccccc3CCc3ccccc32)c2ccc(-c3ccccc3)cc2)c1` [Example 766], the Ki was less than 500 nM on human MR and less than 10000 nM on glucocorticoid receptor.
The corresponding values for `Oc1cccc(/C=C2/c3ccccc3CCc3cccc(Cl)c32)c1` [Example 367] are less than 500 nM and less than 10000 nM.
The corresponding values for `CS(=O)(=O)Nc1cccc(C=C2c3ccccc3CCc3c(Cl)cccc32)c1` (mixture of isomers) [Example 205(a), N-[3-(1-Chloro-10,11-dihydro-dibenzo[a,d]cyclohepten-5-ylidenemethyl)-phenyl]-methanesulfonamide] are less than 500 nM and less than 500 nM.
The corresponding values for `O=S(=O)(Nc1cccc(C=C2c3ccccc3CCc3cc(Cl)ccc32)c1)c1ccc(F)cc1` [Example 291] are less than 500 nM and less than 500 nM.
With `Oc1cc(C=C2c3ccccc3CCc3c(Cl)cccc32)ccc1Cl` [173(b), 2-Chloro-5-(1-chloro-10,11-dihydro-dibenzo[a,d]cyclohepten-5-ylidenemethyl)-phenol], the inhibitory constant (Ki) on human MR was less than 500 nM; on glucocorticoid receptor it was less than 10000 nM.
Consider `O=c1[nH]c2cc(C=C3c4ccc(F)cc4CCc4cc(F)ccc43)ccc2o1` [Example 458], for which the Ki at human MR and on glucocorticoid receptor was less than 500 nM in each case.
For `CS(=O)(=O)Nc1cc(F)cc(/C=C2/c3ccc(F)cc3CCc3nc(C(F)F)ccc32)c1` [Example 594], the inhibitory constant (Ki) at human MR and on glucocorticoid receptor was less than 500 nM throughout.
`C/C(=C1\c2ccccc2COc2cc(C)ccc21)c1cccc(NS(C)(=O)=O)c1` [Example 784]: the Ki at human MR and on glucocorticoid receptor was less than 500 nM in each case.
Regarding `Oc1cccc(C=C2c3ccccc3C3C(c4ccccc42)C3(F)F)c1` (stereo not drawn) [Example 256], the inhibition constant (Ki) on human MR is less than 500 nM; on glucocorticoid receptor, less than 1000 nM.
The corresponding values for `COc1ccc2c(c1)CSc1ccccc1/C2=C(\C)c1cccc(NS(C)(=O)=O)c1` [Example 842] are less than 500 nM and less than 500 nM.
The corresponding values for `O=c1[nH]c2ccc(/C=C3\c4ccccc4CCc4ncsc43)cc2[nH]1` [Example 561] are less than 500 nM and less than 1000 nM.
As to `O=C(CO)c1cccc(C=C2c3ccccc3CCc3cc(Cl)ccc32)c1` [Example 298], the Ki at human MR was less than 500 nM; at glucocorticoid receptor, less than 10000 nM.
The corresponding values for `CS(=O)(=O)Nc1cccc(/C=C2\c3ccccc3CS(=O)(=O)c3ccccc32)c1` [Example 264, N-[3-(10,10-Dioxo-10,11-dihydro-10λ^6-thia-dibenzo[a,d]cyclohepten-5-ylidenemethyl)-phenyl]-Methanesulfonamide] are less than 1000 nM and less than 10000 nM.
The corresponding values for `CC(=C1c2ccc(F)cc2CCc2cc(F)ccc21)c1cccc(NS(C)(=O)=O)c1` [Example 775] are less than 500 nM and less than 500 nM.
The corresponding values for `Oc1cccc(C=C2c3ccccc3C3CC3c3ccccc32)c1` (stereo not drawn) [Example 258] are less than 500 nM and less than 500 nM.
Regarding `FC(F)(F)c1ccccc1C=C1c2ccccc2CCc2cc(Cl)ccc21` [Example 174, 2-Chloro-5-(2-trifluoromethyl-benzylidene)-10,11-dihydro-5H-dibenzo[a,d]cycloheptene], the figures for the Ki on human MR and on glucocorticoid receptor were less than 500 nM and less than 1000 nM, respectively.
The corresponding values for `Cc1ccc(C=C2c3ccccc3CCc3ccccc32)cc1NS(C)(=O)=O` [Example 45, N-[5-(10,11-Dihydro-dibenzo[a,d]cyclohepten-5-ylidenemethyl)-2-methyl-phenyl]-methanesulfonamide] are less than 500 nM and less than 1000 nM.
The corresponding values for `CS(=O)(=O)Nc1cccc(C=C2c3ccccc3CCc3cc(F)cc(F)c32)c1` [Example 344] are less than 500 nM and less than 500 nM.
The corresponding values for `CS(=O)(=O)Nc1cccc(/C=C2\c3ccccc3CCc3scnc32)c1` [484(a), N-[3-(9,10-Dihydro-1-thia-3-aza-benzo[f]azulen-4-ylidenemethyl)-phenyl]-methanesulfonamide] are less than 1000 nM and less than 500 nM.

As usually defined, the Ki is a measure of affinity in units of concentration, obtained from inhibition or displacement.

Source of the values: patent US20060063759A1, “Tricyclic steroid hormone nuclear receptor modulators” (priority 2002, published 2006).
